In ChEMBL document CHEMBL5360581, “Discovery of a novel dual functional phenylpyrazole-styryl hybrid that induces apoptotic and autophagic cell death in bladder cancer cells” (Eur J Med Chem, 2023):
Activity calls are given as the source filed them. The rule behind the calls is not given here.

Legend:
[1] = Toxicity in Zebrafish embryo assessed as delay in hatching at 12.5 to 50 uM administered for 4 hrs post fertilization and measured after 72 hours post fertilization; parameters: species or system Danio rerio; conditions: in vivo, dose 12.5-50 µM
EJ-28 [2] = assay: Induction of autophagy in human EJ-28 cells assessed as upregulation of AKT expression at 5 to 12.5 uM incubated for 24 hrs by Western blot analysis; format: functional, cell-based; conditions: dose 5-12.5 µM
[3] = Toxicity in Zebrafish embryo assessed as mild bradycardia at 12.5 to 25 uM administered for 4 hrs post fertilization and measured after 3 days post fertilization; parameters: species or system Danio rerio; conditions: in vivo, 72 h, dose 12.5-25 µM, time 3 day
[4] = Toxicity in Zebrafish embryo assessed as mild bradycardia at 50 uM administered for 4 hrs post fertilization and measured after 3 days post fertilization; parameters: species or system Danio rerio; conditions: in vivo, 72 h, time 3 day
MCF7 = assay: Antiproliferative activity against human MCF7 cells assessed as reduction in cell viability at 20 uM measured for 72 hrs by MTT assay; format: functional, cell-based
EJ-28 [5] = assay: Induction of cell cycle arrest in human EJ-28 cells assessed as accumulation of cells at S phase at 10 uM incubated for 48 hrs by propidium iodide staining based flow cytometry (reference value: 30%); format: functional
EJ-28 [6] = assay: Induction of apoptosis in human EJ-28 cells assessed as upregulation of PARP expression incubated for 48 to 72 hrs by Western blotting analysis; format: functional, cell-based; conditions: time 48-72 hrs
[7] = Toxicity in Zebrafish embryo assessed as mortality at 12.5 to 50 uM administered for 4 hrs post fertilization and measured after 72 hours post fertilization; parameters: species or system Danio rerio; conditions: in vivo, dose 12.5-50 µM
EJ-28 [8] = assay: Induction of cell cycle arrest in human EJ-28 cells assessed as accumulation of cells at G2/M phase at 1.25 uM incubated for 48 hrs by propidium iodide staining based flow cytometry (reference value: 20%); format: functional
EJ-28 [9] = assay: Induction of cell cycle arrest in human EJ-28 cells assessed as accumulation of cells at S phase at 1.25 uM incubated for 48 hrs by propidium iodide staining based flow cytometry (reference value: 30%); format: functional
[10] = Selectivity index, ratio of IC50 for cytotoxicity against human NHDF cells to IC50 for cytotoxicity against human HT-1080 cells

## O=[N+]([O-])c1cccc(/C=C/c2cc(-c3cc(Cl)ccc3O)n(-c3ccccc3)n2)c1
[1]
  Activity: Non-Toxic
EJ-28 [2]
  Activity: Active
[3]
  Activity: Non-Toxic
[4]
  Activity: Toxic
MCF7
  Activity: Active
EJ-28 [5]
  Activity: 23%
EJ-28 [6]
  Activity: inactive
[7]
  Activity: Non-Toxic
EJ-28 [8]
  Activity: 18%
EJ-28 [9]
  Activity: 27%
[10]
  Ratio IC50: 2.6
